The values that follow come from publication PMC11597746 (Pharmaceutics, 2024).

Values joined by “and” are separate entries in the source; they are usually repeats but may differ in a detail not shown here. Identical values can stand only once. Counter-ions that a name gives are not always drawn. Like-named read-outs stand apart in the source and are kept apart here.

Data set [1] in a line: Plasma pharmacokinetics of REG, M-2 and M-5 in rats after single oral dose (UPLC-MS/MS, noncompartmental analysis). It counts as in vivo, rats (Rattus norvegicus, outbred Wistar stock, males). The conditions noted are these: for AUC0–∞ increased by / Cmax increased by: after the administration of PA (IREG+PA vs. IIREG); for AUC0–t / AUC0–∞ / Cmax: metabolite of REG. How it is done:
(§1) Rats (Rattus norvegicus, outbred Wistar stock, males, 14 weeks old) were obtained from Anima Sp. z o.o. SK & ViVARI s.c. They were acclimated for one week in a temperature- and humidity-controlled environment with a 12 h light/dark cycle and had ad libitum access to food and water.
The rats were divided into three groups: one group received REG and PA (IREG+PA), another group received REG (IIREG), and the last group received PA (IIIPA). […] [15] to the IREG+PA and IIIPA groups. The drugs and vehicle were administered directly into the animals’ stomachs using a gastric probe. Animals received drugs in a sequential manner.
(§2) Blood samples were stored at −80 °C until analysis.
(§3) This approach reduced the number of animals involved in the experiment, adhering to the principles of the 3R concept. […] No other experimental conditions were altered.
A Cortecs UPLC C18 column (2.1 × 50 mm, 1.6 μm) was equipped with an Acquity UPLC BEH C18 VanGuard pre-column (2.1 × 5 mm, 3/Pk, Waters Corporation). The injection volume was 5 μL. The temperature of the autosampler was 4 °C, and the temperature of the column was 40 °C. Mobile phase A comprised 0.1% aqueous FA solution (v/v) and phase B of ACN:MeOH and 0.1% FA aqueous solution at 1:3 (v/v) ratio. The total run time was 5 min.
The gradient was as follows: 0–0.5 min, with 10% B; 0.5–3 min, 95% B; 3–4 min, 95% B; 4–4.1 min, 10% B; and 4.1–5 min, 10% B. The flow rate was 0.4 mL/min. Positive electrospray ionization (ESI) multiple reaction monitoring (MRM) experiments were conducted for sample analysis. […] The Xevo TQ-S micro mass spectrometer settings were used: source temperature 150 °C, desolvation temperature 600 °C, nitrogen gas flow 900 L/h, and capillary voltage 3.6 kV.
(§4) Plasma data were subjected to noncompartmental pharmacokinetic analysis (NCA) using the PKanalix 2024R1 software (Lixoft, France). The maximum plasma concentration (Cmax) and time to reach Cmax (Tmax) were obtained directly from the concentration–time curves. The elimination rate constant (kel) was calculated by linear regression of the final linear part of plasma concentration against time. The elimination half-life (t0.5) was calculated from the formula t0.5 = 0.693/kel. The area under the concentration–time curve (AUC) was calculated using the linear trapezoidal rule. All data were presented as mean ± SD.

The conditions of data set [2]: mean ± SD, cited from earlier work.
The conditions of data set [3]: after administration in tablet form; cited from earlier work.
A further data set relates to plasma proteins. The settings on record: cited from earlier work.
The conditions of data set [4]: IIIPA group: PA 100 mg/kg b.w. + vehiculum, n = 8, mean ± SD, cited from earlier work.
Data set [5] in a line: Plasma pharmacokinetics of PA, GPA and SPA in rats after single oral dose (HPLC-UV, noncompartmental analysis). It is filed as in vivo, rats (Rattus norvegicus, outbred Wistar stock, males). How it is done: as §1
The drugs and vehicle were administered directly into the animals’ stomachs using a gastric probe. Animals received drugs in a sequential manner.
as §2, §3
The column temperature was maintained at 25 °C, the analytical wavelength (λmax) was set at 254 nm, and the injection volume was 50 μL. Theophylline was used as the IS.
The total time of analysis for each run was 10 min. Separation was achieved by isocratic elution of the mobile phase, comprising acetonitrile (93:7, v/v) and sodium sulfate 0.05 M pH 2.2 (adjusted with 85% orthophosphoric acid) at a flow rate of 1.0 mL/min through a BDS Hypersil® C18 column (150 mm × 4.6 mm, 5.0 μm particle size) (Thermo Electron Corporation®, Waltham, MA, USA).
as §4

The conditions of data set [6]: patients taking lorlatinib compared to controls; cited from earlier work.
Where [7] appears, read: IREG+PA group: REG 20 mg/kg b.w. + PA 100 mg/kg b.w., single oral dose, n = 8, mean ± SD.
Setting [8] is: IIREG group: vehiculum + REG 20 mg/kg b.w., single oral dose, n = 8.
Setting [9] is: metabolite of REG, IIREG group: vehiculum + REG 20 mg/kg b.w., single oral dose, n = 8.
Where [10] appears, read: IREG+PA group: REG 20 mg/kg b.w. + PA 100 mg/kg b.w., n = 8, mean ± SD.
Where [11] appears, read: IREG+PA group: REG 20 mg/kg b.w. + PA 100 mg/kg b.w., single p.o. dose, n = 8, mean ± SD.
Where [12] appears, read: PA co-administered with REG vs. PA alone.
[13] abbreviates: regorafenib and paracetamol vs. control group.

Consider `CNC(=O)c1cc(Oc2ccc(NC(=O)Nc3ccc(Cl)c(C(F)(F)F)c3)c(F)c2)ccn1` [REG, regorafenib], for which the t0.5 in data set [1] (setting [7]) is listed as 10.67 ± 2.48 (23.28) h. Also, in data set [1], the “AUC0–∞ increased by” value is listed as 1140% and the “Cmax increased by” value was 890%. Moreover, in data set [2] (setting [8]), the “AUC0–∞” value is 36.85 ± 5.83 (15.8) µg × h/mL, the Cmax was 1.87 ± 0.31 (16.5) µg/mL, the Vd/F was 2.05 ± 0.61 (29.7) L and the kel is listed as 0.11 ± 0.03 (22.8) 1/h. In addition, in data set [2] (IIREG group), the “Sum of the Cmax values for REG, M-2, and M-5” value is 2078.95 ± 691.36 ng/mL. In addition, the average bioavailability in data set [3] is reported as 69%. For the same molecule, in the data set on plasma proteins, the “bind to plasma proteins” value is given as 99.5%.

On to `CNC(=O)c1cc(Oc2ccc(NC(=O)Nc3ccc(Cl)c(C(F)(F)F)c3)c(F)c2)cc[n+]1[O-]` [M-2, regorafenib-N-oxide], for which, in data set [1], the “AUC0–∞ increased by” value is reported as 170% and the “Cmax increased by” value worked out at 220%. Besides, in data set [1] (setting [7]), the “AUC0–t” value is listed as 31,036.39 ± 16,132.08 (52.0) ng × h/mL, the “AUC0–∞” value was 31,434.01 ± 16,129.53 (51.3) ng × h/mL and the Cmax is 1087.58 ± 471.76 (43.4) ng/mL. Also, in data set [2] (setting [9]), the “AUC0–t” value is given as 9615.36 ± 2275.41 (23.7) ng × h/mL and the “AUC0–∞” value is on record as 11,469.93 ± 2133.05 (18.6) ng × h/mL.

Take `CC(=O)Nc1ccc(OS(=O)(=O)O)cc1` [SPA, paracetamol sulfate]: in data set [4], the “Ratio SPA/PA AUC0–t” value is recorded as 0.91 ± 0.43 (47.3), the “Ratio SPA/PA AUC0–∞” value is recorded as 0.94 ± 0.40 (42.4) and the “Ratio SPA/PA Cmax” value is listed as 0.88 ± 0.46 (52.7). Also, in data set [4] (single p.o. dose), the “AUC0–t” value is listed as 71.92 ± 31.03 (43.2) µg × h/mL, the “AUC0–∞” value is recorded as 82.42 ± 32.71 (39.7) µg × h/mL and the Cmax is reported as 19.41 ± 7.05 (36.4) µg/mL. Further, in data set [5] (setting [10]), the “Ratio SPA/PA AUC0–t” value is given as 2.18 ± 0.50 (22.9), the “Ratio SPA/PA AUC0–∞” value is 2.40 ± 0.68 (28.4) and the “Ratio SPA/PA Cmax” value is on record as 1.14 ± 0.12 (10.1). In addition, in data set [5] (setting [11]), the “AUC0–t” value is 140.89 ± 17.87 (12.7) µg × h/mL, the “AUC0–∞” value is on record as 157.71 ± 24.35 (15.4) µg × h/mL and the Cmax is 30.61 ± 3.94 (12.9) µg/mL. In addition, in data set [5] (IREG+PA vs. IIIPA), the “Gmean ratio (90% CI) of AUC0–t” value is 2.13 (1.58; 2.86), the “Gmean ratio (90% CI) of AUC0–∞” value was 2.04 (1.54; 2.71), the “Gmean ratio (90% CI) of Cmax” value is 1.67 (1.29; 2.15) and the “Gmean ratio (90% CI) of ratio SPA/PA AUC0–t” value is listed as 2.58 (1.84; 3.60). For the same molecule, in data set [5] (IREG+PA vs. IIIPA), the “Gmean ratio (90% CI) of ratio SPA/PA AUC0–∞” value is listed as 2.69 (1.94; 3.72), the “Gmean ratio (90% CI) of ratio SPA/PA Cmax” value is listed as 1.47 (1.04; 2.09), the “SPA/PA ratio for AUC0–t increased by” value is 139.52% and the “SPA/PA ratio for AUC0–∞ increased by” value is 155.32%. Moreover, in data set [5] (setting [12]), the “AUC0–t increased by” value came to 95.89%, the “AUC0–∞ increased by” value is on record as 91.35% and the “Cmax increased by” value is 57.70%.

For the molecule `CC(=O)Nc1ccc(O)cc1` [PA, paracetamol, reference compound], in data set [6], the “decrease in AUC0–∞” value is 43% and the “decrease in Cmax” value is given as 15%. In data set [4] (single p.o. dose), the Vd/F is 1.98 ± 0.63 mL/g, the t0.5 is on record as 2.26 ± 0.70 (31.0) h and the tmax is given as 0.81 ± 0.58 (71.2) h. In data set [5] (setting [11]), the Cmax was 27.08 ± 3.88 (14.3) µg/mL and the t0.5 is given as 1.14 ± 0.45 (39.7) h. Moreover, the “AUC0–t decreased by” value in data set [5] (setting [12]) is recorded as 20.72%. For the same molecule, in data set [5] (PA co-administered with REG vs. PA alone, listed as paracetamol), the “AUC0–t decreased by” value is 17.16%. In data set [5] (setting [13]), the “decrease in Vd/F” value turned out to be 54.04% and the “decrease in t0.5” value was 49.56%.

For the molecule `CC(=O)Nc1ccc(O[C@@H]2O[C@H](C(=O)O)[C@@H](O)[C@H](O)[C@H]2O)cc1` [GPA, paracetamol glucuronide], in data set [4], the “Ratio GPA/PA AUC0–t” value is 1.75 ± 0.47 (27.1), the “Ratio GPA/PA AUC0–∞” value is recorded as 1.78 ± 0.54 (30.6) and the “Ratio GPA/PA Cmax” value is listed as 1.67 ± 0.41 (24.8). In data set [4] (single p.o. dose), the “AUC0–t” value was 136.24 ± 23.58 (17.3) µg × h/mL, the “AUC0–∞” value is 154.09 ± 35.58 (23.09) µg × h/mL and the Cmax is 38.38 ± 3.75 (9.8) µg/mL. Further, in data set [5] (setting [10]), the “Ratio GPA/PA AUC0–t” value is 1.50 ± 0.30 (19.7), the “Ratio GPA/PA AUC0–∞” value was 1.53 ± 0.34 (21.9) and the “Ratio GPA/PA Cmax” value is 1.02 ± 0.19 (18.9). Further, in data set [5] (setting [11]), the “AUC0–t” value is 97.9 ± 16.13 (16.5) µg × h/mL, the “AUC0–∞” value is 102.00 ± 18.50 (18.1) µg × h/mL and the Cmax is listed as 27.11 ± 3.05 (11.25) µg/mL. In data set [5] (IREG+PA vs. IIIPA), the “GPA/PA ratio for Cmax decreased by” value is 63.73%, the “Gmean ratio (90% CI) of AUC0–t” value is on record as 0.72 (0.62; 0.84), the “Gmean ratio (90% CI) of AUC0–∞” value was 0.67 (0.55; 0.80) and the “Gmean ratio (90% CI) of Cmax” value was 0.71 (0.64; 0.77). Further, in data set [5] (IREG+PA vs. IIIPA), the “Gmean ratio (90% CI) of ratio GPA/PA AUC0–t” value is 0.87 (0.70; 1.09), the “Gmean ratio (90% CI) of ratio GPA/PA AUC0–∞” value was 0.88 (0.68; 1.13) and the “Gmean ratio (90% CI) of ratio GPA/PA Cmax” value was 0.62 (0.50; 0.77). Moreover, in data set [5] (setting [12]), the “AUC0–t decreased by” value stood at 39.16%; the “AUC0–∞ decreased by” value is 51.1% and 51.07%.

On to `NC(=O)c1cc(Oc2ccc(NC(=O)Nc3ccc(Cl)c(C(F)(F)F)c3)c(F)c2)cc[n+]1[O-]` [M-5, N-desmethyl-regorafenib-N-oxide], for which, in data set [1], the “AUC0–∞ increased by” value is 1730% and the “Cmax increased by” value was found to be 2130%. In addition, in data set [1] (setting [7]), the “AUC0–t” value was 15,054.83 ± 7479.43 (49.7) ng × h/mL, the “AUC0–∞” value is reported as 15,506.44 ± 8001.74 (51.6) ng × h/mL and the Cmax was 585.96 ± 193.12 (33.0) ng/mL. In data set [2] (setting [9]), the “AUC0–t” value is on record as 803.19 ± 177.02 (22.0) ng × h/mL and the “AUC0–∞” value was 847.88 ± 178.97 (21.1) ng × h/mL.
